Patent publication US6924266B2, “NTP-peptides and method for removal of tumors” (Nymox Corporation, priority 2001, dated 2005)

Test system: muscle tissue, subcutaneous connective tissue, and dermis
Assay: Effect on tissue at sites of injection in normal rats, histopathology at 24 hours
Format: in vivo
Details: for effect on tissue at sites of injection (histopathology): injected in skin, subcutaneously and in extremity skeletal muscle, in saline, 100 to 400 mL at 0.1-1 mg/mL, sacrificed at 24 hours; for muscle changes at injection sites compared with controls: extremity skeletal muscle injection; for muscle changes at injection sites compared with controls / spread of necrosis / cell death beyond the site of injection: 24 hours; for spread of necrosis / cell death beyond the site of injection: local injection
Procedure: (§1) Eight normal rats were injected in the skin and subcutaneously, each in four different foci, and in extremity skeletal muscle, each in two different foci, with NTP peptide #43 in saline in quantities of […] at concentrations of 0.1-1 mg/mL delivered from plastic syringes through stainless steel 26 gauge needles.
The 48 individual foci of infiltration were excised, fixed in 10% formalin, embedded in paraffin, and stained and examined by standard histopathological methods.
Similar groups of control rats were injected with (1) bovine serum albumin 0.1% in saline, (2) normal human serum, (3) physiological saline, (4) noninfectious bacterial proteins, and (5) control peptides and purified and then examined and sacrificed as above, with the excised foci of injection treated as above.
as §1, with “#17” for “#43”
The controls were the same as Example 1.
as §1, with “#20” for “#43”
as §1, with “#19” for “#43”
as §1, with “#16” for “#43”
as §1, with “#15” for “#43”
as §1, with “#14” for “#43”

Sequence: FILFFLRHRCPTL (listed as Homo sapiens) [NTP peptide #19]
- effect on tissue at sites of injection (histopathology): cell death and necrosis of tissue at the injection sites

Sequence: FILFFLRHRCPTLTQDEVQWCDHSS (listed as Homo sapiens) [NTP peptide #20]
- muscle changes at injection sites compared with controls: entire fields of muscle fiber layers were necrotic
- effect on tissue at sites of injection (histopathology): cell death and necrosis of tissue at the injection sites
- spread of necrosis / cell death beyond the site of injection: did not appear to spread far beyond the site of injection

Sequence: KCWDYRRAAVPGL (listed as Homo sapiens) [NTP peptide #14]
- effect on tissue at sites of injection (histopathology): cell death and necrosis of tissue at the injection sites

Sequence: KCWDYRRAAVPGLFILFFL (listed as Homo sapiens) [NTP peptide #15]
- effect on tissue at sites of injection (histopathology): cell death and necrosis of tissue at the injection sites

Sequence: KCWDYRRAAVPGLFILFFLRHRCP (listed as Homo sapiens) [NTP peptide #16]
- effect on tissue at sites of injection (histopathology): cell death and necrosis of tissue at the injection sites

Sequence: KCWDYRRAAVPGLFILFFLRHRCPTLTQDEVQWCDHSS (listed as Homo sapiens) [NTP peptide #17]
- muscle changes at injection sites compared with controls: entire fields of muscle fiber layers were necrotic
- effect on tissue at sites of injection (histopathology): abundant acute necrosis of tissue at the injection sites
- spread of necrosis / cell death beyond the site of injection: did not appear to spread far beyond the site of injection
